Among the data in US20050197350A1, “Novel quinoline, tetrahydroquinazoline, and pyrimidine derivatives and methods of treatment related to the use thereof” (TAISHO PHARMACEUTICAL CO., LTD., priority 2003, published 2005) are class values, retold here.

This assay has as its system MCH receptors. The assay can be described thus: MCH receptor activity class (method not given).
Where [1] appears, read: MCH receptor, class by percent of control at 10^-7 M or IC50.
Where [2] appears, read: class by percent of control at 10^-7 M or IC50.
The mark [3] stands for this setting: class 1-3 by percent of control at 10^-7 M or IC50.
Where [4] appears, read: MCH receptor activity class 1-3 (percent of control at 10^-7 M or IC50).
The mark [5] stands for this setting: activity class 1-3: percent of control at 10^-7 M or IC50.
[6] abbreviates: class by percent of control at 10^−7 M or IC50.

Read-outs that look alike come from different tables or passages of the source.

For `CN(C)c1cc(N[C@H]2CC[C@@H](NC(=O)c3cc(F)cc(C(F)(F)F)c3)CC2)nc2ccccc12` [compound 38, N-(cis-4-{[4-(dimethylamino)quinolin-2-yl]amino}cyclohexyl)-3-fluoro-5-(trifluoromethyl)benzamide], the class under setting [1] is 2 (Class 2: The value of percent of control at 10^−7 M was from 40% to 60% or the value of IC′50 was from 50 nM to 200 nM.).

Regarding `Cc1ccc(C(=O)CC(SCc2ccc(Cl)cc2)C(=O)N[C@H]2CC[C@@H](Nc3nc4c(c(N(C)C)n3)CCCC4)CC2)cc1` (relative stereo) [compound 1018], the class (activity class per percent of control at 10^-7 M or IC50) is 2 (Class 2: The value of percent of control at 10^−7 M was from 40% to 60% or the value of IC′50 was from 50 nM to 200 nM.).

For `CN(C)c1cc(N[C@H]2CC[C@@H](NC(=O)c3cc(Br)c(Br)s3)CC2)nc2ccccc12` [compound 701], the class under setting [2] was 2 (Class 2: The value of percent of control at 10^−7 M was from 40% to 60% or the value of IC′50 was from 50 nM to 200 nM.).

With `CN(C)c1nc(N[C@H]2CC[C@@H](NC(=O)c3cc(Cl)sc3Cl)CC2)nc2c1CCCC2` [compound 519, 2,5-dichloro-N-(cis-4-{[4-(dimethylamino)-5,6,7,8-tetrahydroquinazolin-2-yl]amino}cyclohexyl)thiophene-3-carboxamide], under setting [3], the class is recorded as 1 (Class 1: The value of percent of control at 10^−7 M was less than 40% or the value of IC50 was less than 50 nM.).

As to `Cc1cccc(NC(=S)N[C@H]2CC[C@@H](Nc3nccc(N(C)C)n3)CC2)c1C` [compound 2344], the class under setting [4] is 3 (Class 3 The value of percent of control at 10^−7 M was more than 60% or the value of IC50 was more than 200 nM.).

With `CCCCCCCCOC(=O)NC[C@H]1CC[C@@H](Nc2nccc(N(C)C)n2)CC1` [compound 1646], the class under setting [5] was 3 (Class 3 The value of percent of control at 10^−7 M was more than 60% or the value of IC50 was more than 200 nM.).

Take `CC(C)S(=O)(=O)c1csc(C(=O)N[C@H]2CC[C@@H](Nc3nc4c(c(N(C)C)n3)CCCC4)CC2)c1Cl` [compound 537]: the class under setting [3] was 3 (Class 3 The value of percent of control at 10^−7 M was more than 60% or the value of IC50 was more than 200 nM.).

Consider `CN(C)c1ccnc(N[C@H]2CC[C@@H](NCc3c[nH]nc3-c3ccc(F)cc3)CC2)n1` [compound 1238], for which the class under setting [2] is on record as 3 (Class 3 The value of percent of control at 10^−7 M was more than 60% or the value of IC50 was more than 200 nM.).

For `COc1ccc(C)cc1NC(=S)N[C@H]1CC[C@@H](Nc2nccc(N(C)C)n2)CC1` [compound 2315], the class under setting [4] was 3 (Class 3 The value of percent of control at 10^−7 M was more than 60% or the value of IC50 was more than 200 nM.).

With `Cc1cnc(N[C@H]2CC[C@@H](CNC(=O)c3ccc(C(F)(F)F)cc3)CC2)nc1N(C)C` [compound 2698], the class under setting [6] is recorded as 3 (Class 3 The value of percent of control at 10^−7 M was more than 60% or the value of IC50 was more than 200 nM.).

Regarding `CN(C)c1nc(N[C@H]2CC[C@@H](NC(=S)NCC3CCCCC3)CC2)nc2c1CCCC2` [compound 2027], the class under setting [1] is recorded as 3 (Class 3 The value of percent of control at 10^−7 M was more than 60% or the value of IC50 was more than 200 nM.).

On to `CN(C)c1nc(N[C@H]2CC[C@@H](NC(=O)Nc3ccccc3Br)CC2)nc2c1CCCC2` [compound 1693], for which the class under setting [5] is recorded as 3 (Class 3 The value of percent of control at 10^−7 M was more than 60% or the value of IC50 was more than 200 nM.).

As to `Cc1cnc(N[C@H]2CC[C@@H](NC(=O)COc3cccc(C(F)(F)F)c3)CC2)nc1N(C)C` [compound 2878, N-(cis-4-{[4-(dimethylamino)-5-methylpyrimidin-2-yl]amino}cyclohexyl)-2-[3-(trifluoromethyl)phenoxy]acetamide], under setting [6], the class is given as 1 (Class 1: The value of percent of control at 10^−7 M was less than 40% or the value of IC50 was less than 50 nM.).

`CN(C)c1nc(N[C@H]2CC[C@@H](CNC(=O)c3ccc4nonc4c3)CC2)nc2c1CCCC2` [compound 585]: under setting [3], the class is 3 (Class 3 The value of percent of control at 10^−7 M was more than 60% or the value of IC50 was more than 200 nM.).

For `CN(C)c1ccnc(N[C@H]2CC[C@@H](CNC(=O)Nc3cccc(Cl)c3Cl)CC2)n1` [compound 2440], under setting [4], the class was 1 (Class 1: The value of percent of control at 10^−7 M was less than 40% or the value of IC50 was less than 50 nM.).

Consider `Cc1cc(CNC[C@H]2CC[C@@H](Nc3nccc(N(C)C)n3)CC2)ccc1O` [compound 1315], for which the class under setting [2] was 3 (Class 3 The value of percent of control at 10^−7 M was more than 60% or the value of IC50 was more than 200 nM.).

As to `CN(C)c1cc(N[C@H]2CC[C@@H](NC(=O)c3ccc(-c4cccc([N+](=O)[O-])c4)o3)CC2)nc2ccccc12` [compound 763, N-(cis-4-{[4-(dimethylamino)quinolin-2-yl]amino}cyclohexyl)-5-(3-nitrophenyl)-2-furamide], the class under setting [2] is listed as 1 (Class 1: The value of percent of control at 10^−7 M was less than 40% or the value of IC50 was less than 50 nM.).

As for `CN(C)c1ccnc(N[C@H]2CC[C@@H](NC(=O)NCc3ccc(Cl)cc3Cl)CC2)n1` [compound 2230], the class under setting [2] is 3 (Class 3 The value of percent of control at 10^−7 M was more than 60% or the value of IC50 was more than 200 nM.).

With `Cc1nn(-c2ccccc2)nc1C(=O)N[C@H]1CC[C@@H](Nc2cc(N(C)C)c3ccccc3n2)CC1` [compound 107, N-(cis-4-{[4-(dimethylamino)quinolin-2-yl]amino}cyclohexyl)-5-methyl-2-phenyl-2H-1,2,3-triazole-4-carboxamide], the class under setting [1] is recorded as 2 (Class 2: The value of percent of control at 10^−7 M was from 40% to 60% or the value of IC′50 was from 50 nM to 200 nM.).

Turning to `Cc1ccc(NC(=S)N[C@H]2CC[C@@H](Nc3nc4c(c(N(C)C)n3)CCCC4)CC2)cc1C` [compound 2063], under setting [1], the class is reported as 3 (Class 3 The value of percent of control at 10^−7 M was more than 60% or the value of IC50 was more than 200 nM.).

For the compound `Cc1ccc(C(=O)N[C@H]2CC[C@@H](Nc3nc(C)cc(N(C)C)n3)CC2)cc1` [Example 2565, N-(cis-4-{[4-(dimethylamino)-6-methylpyrimidin-2-yl]amino}cyclohexyl)-4-methylbenzamide], the class is given as 1.

As for `CN(C)c1cc(N[C@H]2CC[C@@H](CNC(=O)Cc3ccccc3OC(F)(F)F)CC2)nc2ccccc12` [compound 808], the class under setting [2] is 3 (Class 3 The value of percent of control at 10^−7 M was more than 60% or the value of IC50 was more than 200 nM.).

On to `Cc1ccc2occ(CN[C@H]3CC[C@@H](Nc4nc5c(c(N(C)C)n4)CCCC5)CC3)c(=O)c2c1` [compound 1348], for which the class under setting [2] is given as 3 (Class 3 The value of percent of control at 10^−7 M was more than 60% or the value of IC50 was more than 200 nM.).

As to `CN(C)c1ccnc(N[C@H]2CC[C@@H](NC(=O)Nc3c(Cl)c(Cl)cc(Cl)c3Cl)CC2)n1` [compound 2228], the class under setting [2] is on record as 3 (Class 3 The value of percent of control at 10^−7 M was more than 60% or the value of IC50 was more than 200 nM.).

`CCCCCCCCOC(=O)NC[C@H]1CC[C@@H](Nc2nc3c(c(N(C)C)n2)CCCC3)CC1` [compound 1606]: the class under setting [5] is on record as 3 (Class 3 The value of percent of control at 10^−7 M was more than 60% or the value of IC50 was more than 200 nM.).

On to `Cc1oc(-c2ccccc2)cc1CNC[C@H]1CC[C@@H](Nc2nc3c(c(N(C)C)n2)CCCC3)CC1` [compound 1434], for which, under setting [2], the class is listed as 3 (Class 3 The value of percent of control at 10^−7 M was more than 60% or the value of IC50 was more than 200 nM.).
